According to patent US12398120B2, “Substituted hydantoinamides as ADAMTS7 antagonists” (BAYER AKTIENGESELLSCHAFT, priority 2019, dated 2025):
pIC50: −log10 of the molar value.

target: ADAMTS4 (Homo sapiens (Human), UniProt O75173); assay: Selectivity assay for ADAMTS-7 modulators: ADAMTS4 (FRET substrate); type: biochemical; conditions: ADAMTS4 (R&D 4307-AD) 50 nM, substrate Dabcyl-EEVKAKVQPY-Glu(Edans)-NH2 1 μM, 120 min, 32° C.
Procedure, shortened: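 Activity read as rising fluorescence after a FRET substrate is cleaved by human ADAMTS4, with reactions started by substrate addition to wells holding compound or DMSO. Percent inhibition plotted against concentration gave IC50.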

Chain of ADAMTS4 (O75173 213-685): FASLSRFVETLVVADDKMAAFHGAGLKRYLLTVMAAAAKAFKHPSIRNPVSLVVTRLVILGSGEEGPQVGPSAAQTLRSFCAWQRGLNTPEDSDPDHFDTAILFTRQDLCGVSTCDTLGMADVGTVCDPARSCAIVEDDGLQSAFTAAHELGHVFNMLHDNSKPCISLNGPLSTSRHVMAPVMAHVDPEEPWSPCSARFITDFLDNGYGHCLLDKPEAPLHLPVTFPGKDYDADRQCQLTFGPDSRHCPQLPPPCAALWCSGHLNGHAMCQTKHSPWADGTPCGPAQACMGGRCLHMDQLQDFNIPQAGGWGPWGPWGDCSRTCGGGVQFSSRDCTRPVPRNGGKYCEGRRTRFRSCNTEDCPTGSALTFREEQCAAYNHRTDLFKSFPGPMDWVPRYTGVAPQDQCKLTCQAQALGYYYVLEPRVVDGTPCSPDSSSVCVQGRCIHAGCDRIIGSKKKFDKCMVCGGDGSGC

SMILES | pIC50
Cc1conc1C1(CNC(=O)c2ccccc2-c2ccc(C(F)(F)F)cc2)NC(=O)NC1=O (racemic) [Example 44, Rac-N-{[4-(4-Methyl-1,2-Oxazol-3-Yl)-2,5-Dioxoimidazolidin-4-Yl]Methyl}-4′-(Trifluoromethyl)[Biphenyl]-2-Carboxamide] | 4.96
Cc1cnn(C)c1C1(CNC(=O)c2ccccc2-c2ccc(C(F)(F)F)nc2)NC(=O)NC1=O (racemic) [Example 52, Rac-N-{[4-(1,4-Dimethyl-1H-Pyrazol-5-Yl)-2,5-Dioxoimidazolidin-4-Yl]Methyl}-2-[6-(Trifluoromethyl)Pyridin-3-Yl]Benzamide] | 4.72
Cc1scnc1C1(CNC(=O)c2cc(F)ccc2-c2ccc(C(F)(F)F)cc2)NC(=O)NC1=O (racemic) [Example 165, Rac-4-Fluoro-N-{[4-(5-Methyl-1,3-Thiazol-4-Yl)-2,5-Dioxoimidazolidin-4-Yl]Methyl}-4′-(Trifluoromethyl)[Biphenyl]-2-Carboxamide] | 5.18
O=C1NC(=O)C(CNC(=O)c2ccc(F)c(F)c2-c2ccc(C(F)(F)F)cc2)(c2cscn2)N1 (stereo not drawn) [Example 278, Ent-N-{[2,5-Dioxo-4-(1,3-Thiazol-4-Yl)Imidazolidin-4-Yl]Methyl}-5,6-Difluoro-4′-(Trifluoromethyl)[Biphenyl]-2-Carboxamide] | 5.07
Cc1c(C2(CNC(=O)c3ccccc3-c3ccc(C(F)(F)F)cc3)NC(=O)NC2=O)cnn1CC(F)(F)F (racemic) [Example 98, Rac-N-({4-[5-Methyl-1-(2,2,2-Trifluoroethyl)-1H-Pyrazol-4-Yl]-2,5-Dioxoimidazolidin-4-Yl}Methyl)-4′-(Trifluoromethyl)[Biphenyl]-2-Carboxamide] | 4.68
CC1(CNC(=O)c2ccccc2-c2ccc(C(F)(F)F)cc2)NC(=O)NC1=O (stereo not drawn) [Example 96, Ent-N-[(4-Methyl-2,5-Dioxoimidazolidin-4-Yl)Methyl]-4′-(Trifluoromethyl)[Biphenyl]-2-Carboxamide] | 4.34
Cc1scnc1C1(CNC(=O)c2cc(F)ccc2-c2ccc(Cl)cc2)NC(=O)NC1=O (single isomer, unassigned; ent-4) [Example 174, Ent-4′-Chloro-4-Fluoro-N-{[4-(5-Methyl-1,3-Thiazol-4-Yl)-2,5-Dioxoimidazolidin-4-Yl]Methyl}[Biphenyl]-2-Carboxamide] | 5.59
Cn1ccnc1C1(CNC(=O)c2ccc(Cl)cc2-c2ccc(C(F)(F)F)cc2)NC(=O)NC1=O (single isomer, unassigned; ent-5) [Example 161, Ent-5-Chloro-N-{[4-(1-Methyl-1H-Imidazol-2-Yl)-2,5-Dioxoimidazolidin-4-Yl]Methyl}-4′-(Trifluoromethyl)[Biphenyl]-2-Carboxamide] | 6.14
CC(C)C1(CNC(=O)c2ccc(F)cc2-c2ccc(C(F)(F)F)cc2)NC(=O)NC1=O (racemic) [Example 206, Rac-5-Fluoro-N-[(4-Isopropyl-2,5-Dioxoimidazolidin-4-Yl)Methyl]-4′-(Trifluoromethyl)[Biphenyl]-2-Carboxamide] | < 4.30
Cc1nn(C)cc1C1(CNC(=O)c2ccccc2-c2ccc(C(F)(F)F)cc2)NC(=O)NC1=O (racemic) [Example 60, Rac-N-{[4-(1,3-Dimethyl-1H-Pyrazol-4-Yl)-2,5-Dioxoimidazolidin-4-Yl]Methyl}-4′-(Trifluoromethyl)[Biphenyl]-2-Carboxamide] | 4.82
Cn1nccc1C1(CNC(=O)c2cccc(Cl)c2-c2ccc(C(F)(F)F)cc2)NC(=O)NC1=O (single isomer, unassigned; ent-6) [Example 310, Ent-6-Chloro-N-{[4-(1-Methyl-1H-Pyrazol-5-Yl)-2,5-Dioxoimidazolidin-4-Yl]Methyl}-4′-(Trifluoromethyl)[Biphenyl]-2-Carboxamide] | 5.72
Cc1nsnc1C1(CNC(=O)c2ccccc2-c2ccc(C(F)(F)F)nc2)NC(=O)NC1=O (stereo not drawn) [Example 91, Ent-N-{[4-(4-Methyl-1,2,5-Thiadiazol-3-Yl)-2,5-Dioxoimidazolidin-4-Yl]Methyl}-2-[6-(Trifluoromethyl)Pyridin-3-Yl]Benzamide] | 4.52
Cc1cn(C)nc1C1(CNC(=O)c2ccccc2-c2ccc(C(F)(F)F)cc2)NC(=O)NC1=O (racemic) [Example 39, Rac-N-{[4-(1,4-Dimethyl-1H-Pyrazol-3-Yl)-2,5-Dioxoimidazolidin-4-Yl]Methyl}-4′-(Trifluoromethyl)[Biphenyl]-2-Carboxamide] | 5.00
Cn1nccc1C1(CNC(=O)c2ccc(Cl)cc2-c2ccc(Cl)cc2)NC(=O)NC1=O (single isomer, unassigned; ent-4) [Example 193, Ent-4′,5-Dichloro-N-{[4-(1-Methyl-1H-Pyrazol-5-Yl)-2,5-Dioxoimidazolidin-4-Yl]Methyl}[Biphenyl]-2-Carboxamide] | 5.80
Cn1ccnc1C1(CNC(=O)c2cccc(F)c2-c2ccc(C(F)(F)F)cc2)NC(=O)NC1=O (single isomer, unassigned; ent-6) [Example 163, Ent-6-Fluoro-N-{[4-(1-Methyl-1H-Imidazol-2-Yl)-2,5-Dioxoimidazolidin-4-Yl]Methyl}-4′-(Trifluoromethyl)[Biphenyl]-2-Carboxamide] | 5.89
Cc1ccc(-c2ccc(F)cc2C(=O)NCC2(c3nccn3C)NC(=O)NC2=O)cc1 (single isomer, unassigned; ent-4) [Example 152, Ent-4-Fluoro-4′-Methyl-N-{[4-(1-Methyl-1H-Imidazol-2-Yl)-2,5-Dioxoimidazolidin-4-Yl]Methyl}[Biphenyl]-2-Carboxamide] | 6.15
Cc1ccc(C(=O)NCC2(c3nccn3C)NC(=O)NC2=O)c(-c2ccc(C(F)(F)F)cc2)c1 (single isomer, unassigned; ent-5) [Example 151, Ent-5-Methyl-N-{[4-(1-Methyl-1H-Imidazol-2-Yl)-2,5-Dioxoimidazolidin-4-Yl]Methyl}-4′-(Trifluoromethyl)[Biphenyl]-2-Carboxamide] | 5.99
Cc1ncn(C)c1C1(CNC(=O)c2ccc(F)cc2-c2ccc(C(F)(F)F)cc2)NC(=O)NC1=O (racemic) [Example 286, Rac-N-{[4-(1,4-Dimethyl-1H-Imidazol-5-Yl)-2,5-Dioxoimidazolidin-4-Yl]Methyl}-5-Fluoro-4′-(Trifluoromethyl)[Biphenyl]-2-Carboxamide] | 5.01
Cc1nc(C2(CNC(=O)c3ccc(F)cc3-c3ccc(C(F)(F)F)cc3)NC(=O)NC2=O)c(C)s1 (racemic) [Example 269, Rac-N-{[4-(2,5-Dimethyl-1,3-Thiazol-4-Yl)-2,5-Dioxoimidazolidin-4-Yl]Methyl}-5-Fluoro-4′-(Trifluoromethyl)[Biphenyl]-2-Carboxamide] | 5.02
Cc1scnc1C1(CNC(=O)c2cc(F)c(F)cc2-c2ccc(C(F)(F)F)cc2)NC(=O)NC1=O (single isomer, unassigned; ent-4) [Example 17, Ent-4,5-Difluoro-N-{[4-(5-Methyl-1,3-Thiazol-4-Yl)-2,5-Dioxoimidazolidin-4-Yl]Methyl}-4′-(Trifluoromethyl)[Biphenyl]-2-Carboxamide] | 5.15
O=C1NC(=O)C(CNC(=O)c2ccccc2-c2ccc(Cl)cc2)(c2ccnn2C(F)F)N1 (racemic) [Example 258, Rac-4′-Chloro-N-({4-[1-(Difluoromethyl)-1H-Pyrazol-5-Yl]-2,5-Dioxoimidazolidin-4-Yl}Methyl)[Biphenyl]-2-Carboxamide] | 4.92
O=C1NC(=O)[C@](CNC(=O)c2ccccc2-c2ccc(C(F)(F)F)cn2)(C2CC2)N1 [Example 84, N-{[(4R)-4-Cyclopropyl-2,5-Dioxoimidazolidin-4-Yl]Methyl}-2-[5-(Trifluoromethyl)Pyridin-2-Yl]Benzamide] | 4.30
O=C1NC(=O)C(CNC(=O)c2ccc(F)cc2-c2ccc(C(F)(F)F)cc2)(c2ncsc2C2CC2)N1 (stereo not drawn) [Example 273, Ent-N-{[4-(5-Cyclopropyl-1,3-Thiazol-4-Yl)-2,5-Dioxoimidazolidin-4-Yl]Methyl}-5-Fluoro-4′-(Trifluoromethyl)[Biphenyl]-2-Carboxamide] | 4.57
O=C1NC(=O)C(CNC(=O)c2ccc(F)cc2-c2ccc(C(F)(F)F)cc2)(C2(F)CC2)N1 (single isomer, unassigned; ent-5) [Example 253, Ent-5-Fluoro-N-{[4-(1-Fluorocyclopropyl)-2,5-Dioxoimidazolidin-4-Yl]Methyl}-4′-(Trifluoromethyl)[Biphenyl]-2-Carboxamide] | 4.96
Cc1ccc(C(=O)NC[C@@]2(C3CC3)NC(=O)NC2=O)c(-c2ccc(C3CC3(F)F)cc2)c1 (stereo partly drawn) [Example 136, N-{[(4R)-4-Cyclopropyl-2,5-Dioxoimidazolidin-4-Yl]Methyl}-4′-(2,2-Difluorocyclopropyl)-5-Methyl[1,1′-Biphenyl]-2-Carboxamide] | 5.15
Cc1scnc1C1(CNC(=O)c2ccccc2-c2ccc(Cl)cc2)NC(=O)NC1=O (racemic) [Example 171, Rac-4′-Chloro-N-{[4-(5-Methyl-1,3-Thiazol-4-Yl)-2,5-Dioxoimidazolidin-4-Yl]Methyl}[Biphenyl]-2-Carboxamide] | 5.16
CCc1ccc(-c2cc(F)ccc2C(=O)NC[C@@]2(C3CC3)NC(=O)NC2=O)cc1 [Example 110, N-{[(4R)-4-Cyclopropyl-2,5-Dioxoimidazolidin-4-Yl]Methyl}-4′-Ethyl-5-Fluoro[Biphenyl]-2-Carboxamide] | 5.10
Cc1ccc(-c2c(C)cccc2C(=O)NC[C@@]2(C3CC3)NC(=O)NC2=O)cc1 [Example 101, N-{[(4R)-4-Cyclopropyl-2,5-Dioxoimidazolidin-4-Yl]Methyl}-4′,6-Dimethyl[Biphenyl]-2-Carboxamide] | 5.49
O=C1NC(=O)C(CNC(=O)c2ccccc2-c2ccc(C(F)(F)F)cc2)(c2ncccc2C(F)(F)F)N1 (stereo not drawn) [Example 244, Ent-N-({2,5-Dioxo-4-[3-(Trifluoromethyl)Pyridin-2-Yl]Imidazolidin-4-Yl}Methyl)-4′-(Trifluoromethyl)[Biphenyl]-2-Carboxamide] | 5.00
